What was measured:
[1] = target: T1, human NTSR-1 (Homo sapiens (Human), UniProt P30989); experiment: radioligand competitive binding assay using ^177Lu labeled C-1 as reference radioligand
Procedure: The binding affinities of test compounds were determined by a radioligand competitive binding assay using ^177Lu labeled C-1 as the reference radioligand.
Briefly, 100 μL HT-29 cells expressing human NTSR-1 at a density of 1˜2×10^6 cells/mL were mixed with binding buffer (RPMI-1640 medium supplemented with 0.25% bovine serum albumin) in each well of the 96-well filter plate (Millipore). Then the cells in each well were incubated with ^177Lu—C-1 (0.55 μCi/well) and the test compound under 37° C. for 1 hr (n=3). After incubation, unbound ^177Lu—C-1 and the test compound in each well was removed by filtration using a Multiscreen vacuum manifold (Millipore) and the cells were further rinsed with the binding buffer for 5 times. The cells from each well were then collected and radioactivity of the cells in each well was individually measured by y counter (2480 WIZARD2, PerkinElmer). The best-fit IC50 value of test compounds (inhibitory concentration when 50% of the bound ^177Lu—C-1 on cells were displaced) were calculated by fitting the data with nonlinear regression using GraphPad Prism 8.0.1.

[2] = target: T1, human NTSR-1; experiment: FLIPR assay, inhibition of Neurotensin-induced intracellular-calcium mobilization; type: cell-based; details: HEK293 cells stably expressing human NTSR-1, mean; read-out: IC50 (nM) in FLIPR Assays
Procedure: Binding affinities of the representative compounds were also evaluated by FLIPR assay. Neurotensin receptor 1 belongs to the G-protein coupled receptors (GPCR) family. Activation of NTSR-1 by its ligand Neurotensin can induce intracellular-calcium mobilization. In FLIPR assay, the test compound and Neurotensin were incubated together with cells expressing NTSR-1 to measure inhibition of the intracellular-calcium mobilization by the test compound so that to evaluate its binding affinity.
Briefly, HEK293 cells stably expressing human NTSR-1 were plated in 384-well plates. 20 ul cell suspension at a concentration of 10×10^5 per ml was seeded in each well and incubated at 37° C. 5% CO2 overnight. Then the cells in each well were mixed with 20 ul probenecid assay buffer, 20 ul 8 uM Fluo-4 Direct™ Loading Buffer, 6×EC80 of Neurotensin and 10 μl of the diluted test compound, and incubated at 37° C. 5% CO2 for 50 min followed by incubation at room temperature for 10 min. The plate was then subject to FLIPR analysis.

[3] = tested on: ASPC-1 tumor-bearing mice; experiment: Biodistribution of radionuclide labeled complexes in ASPC-1 tumor-bearing mice; type: in vivo, BALB/c nude mice
In short: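 Radiolabeled compound (~30-50 μCi, ~1.11-1.85 MBq, specific activity 30-250 μCi/nmol) was injected i.v. via tail vein into nude mice carrying 0.05-0.50 g subcutaneous NTSR-1-positive human tumors. At set times, tissues were collected, weighed and γ-counted; % ID and % ID/g were calculated.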

[4] = tested on: pancreatic cancer patients; details: cited from earlier work
[5] = tested on: ASPC-1 tumor-bearing mice; experiment: PET/CT imaging of ^68Ga-labeled complexes; type: in vivo; details: over 180 minutes
Procedure: ASPC-1 tumor-bearing mice were IV-injected with 150 μCi of ^68Ga-labeled compounds, anesthetized under 2% isoflurane/oxygen gas and placed on the scanner. PET images were acquired in one bed position for 10 min using an animal PET/SPECT/CT (Inliview-3000B). Whole-body PET images were acquired at 30, 60, 120 and 180 minutes after injection of the radiotracers.

T1 sequence (P30989 whole entry): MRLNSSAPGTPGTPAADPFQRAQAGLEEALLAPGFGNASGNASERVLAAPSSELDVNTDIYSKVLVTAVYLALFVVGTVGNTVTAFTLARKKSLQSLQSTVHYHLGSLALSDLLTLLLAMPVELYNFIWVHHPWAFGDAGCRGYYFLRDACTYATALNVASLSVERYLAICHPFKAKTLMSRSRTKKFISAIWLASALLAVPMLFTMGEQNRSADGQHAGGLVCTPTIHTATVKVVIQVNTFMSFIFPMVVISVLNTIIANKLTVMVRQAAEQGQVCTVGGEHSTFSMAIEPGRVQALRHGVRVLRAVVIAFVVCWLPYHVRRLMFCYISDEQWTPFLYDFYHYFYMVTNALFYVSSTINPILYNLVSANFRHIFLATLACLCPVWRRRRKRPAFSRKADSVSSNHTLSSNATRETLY

With `COc1cccc(OC)c1-c1cc(C(=O)NC2(C(=O)O)C3CC4CC(C3)CC2C4)nn1-c1ccc(C(=O)N(C)CCCN(C)CCCN(C)C(=O)CN2CCN(CC(=O)O)CCN(CC(=O)O)CCN(CC(=O)O)CC2)cc1C(C)C` (centres unmarked) [Compound C-2, 2,2′,2″-(10-(2-((3-((3-(4-(3-((2-carboxyadamantan-2-yl)carbamoyl)-5-(2,6-dimethoxyphenyl)-1H-pyrazol-1-yl)-3-isopropyl-N-methylbenzamido)propyl)(methyl)amino)propyl)(methyl)amino)-2-oxoethyl)-1,4,7,10-tetraazacyclododecane-1,4,7-triyl)triacetic acid, reference compound] the “Relative Binding Affinity” value ([1]; Mean IC50 of C-1/Mean IC50 of the test compound) was 7.2, the “potency relative to SR142948” value ([1]; competitive radioligand binding assay using HT-29 cells) was “about 40%” and the IC50 [2] was 45.4 nM. For the same molecule, the “AUC (0-72 h) ratio Tumor/Blood” value ([3]; ^177Lu-labeled complex) was 9.0, the “AUC (0-72 h) ratio Tumor/Kidney” value ([3]; ^177Lu-labeled complex) was 8.80 and the “AUC (0-72 h) ratio Tumor/Liver” value ([3]; ^177Lu-labeled complex) was 7.61. For the same molecule, the “AUC (0-72 h) ratio Tumor/Lung” value ([3]; ^177Lu-labeled complex) was 14.2 and the “tumor uptake of the radioligand” value ([4]; ^177Lu-chelated form, small number of pancreatic cancer patients) was “clearly observed”.
In the case of `COc1cccc(OC)c1-c1cc(C(=O)NC2(C(=O)O)C3CC4CC(C3)CC2C4)nn1-c1ccc(N(CCCN(C)C)C(=O)COCCOCCNC(=O)CN2CCN(CC(=O)[O-])CCN(CC(=O)[O-])CCN(CC(=O)[O-])CC2)cc1C(C)C.[68Ga+3]` (centres unmarked) [^68Ga—I-6], the “tumor uptake/retention compared to ^68Ga—C-5 (PET/CT)” value ([5]; ASPC-1 tumor-bearing mice) is reported as “stronger tumor uptake/retention” and the “tumor to normal contrast compared to ^68Ga—C-5 (PET/CT)” value ([5]; such as tumor to liver) is reported as “better tumor to normal contrast”.
For `COc1cccc(OC)c1-c1cc(C(=O)NC2(C(=O)O)C3CC4CC(C3)CC2C4)nn1-c1ccc(C(=O)N(C)CCCN(C)CCCN(C)C(=O)CN2CCN(CC(=O)[O-])CCN(CC(=O)[O-])CCN(CC(=O)[O-])CC2)cc1C(C)C.[177Lu+3]` (centres unmarked) [^177Lu-C-2, reference compound], the “% ID/g (1 h) Blood” value ([3]; Blood, 1 h) was 13.87 ± 0.17 % ID/g, the “% ID/g (4 h) Blood” value ([3]; Blood, 4 h) was 4.46 ± 0.64 % ID/g and the “% ID/g (24 h) Blood” value ([3]; Blood, 24 h) was 0.31 ± 0.1 % ID/g. For the same molecule, the “% ID/g (72 h) Blood” value ([3]; Blood, 72 h) was 0.09 ± 0.01 % ID/g, the “% ID/g (1 h) Femur” value ([3]; Femur, 1 h) was 1.34 ± 0.23 % ID/g and the “% ID/g (4 h) Femur” value ([3]; Femur, 4 h) was 0.89 ± 0.11 % ID/g. The “% ID/g (24 h) Femur” value ([3]; Femur, 24 h) was 0.22 ± 0.13 % ID/g, the “% ID/g (72 h) Femur” value ([3]; Femur, 72 h) was 0.12 ± 0.03 % ID/g and the “% ID/g (1 h) Heart” value ([3]; Heart, 1 h) was 4.83 ± 1.1 % ID/g. The “% ID/g (4 h) Heart” value ([3]; Heart, 4 h) was 1.72 ± 0.18 % ID/g, the “% ID/g (24 h) Heart” value ([3]; Heart, 24 h) was 0.37 ± 0.07 % ID/g and the “% ID/g (72 h) Heart” value ([3]; Heart, 72 h) was 0.16 ± 0.04 % ID/g. The “% ID/g (1 h) Intestine” value ([3]; Intestine, 1 h) was 1.98 ± 0.63 % ID/g, the “% ID/g (4 h) Intestine” value ([3]; Intestine, 4 h) was 1.62 ± 0.41 % ID/g and the “% ID/g (24 h) Intestine” value ([3]; Intestine, 24 h) was 0.44 ± 0.11 % ID/g. For the same molecule, the “% ID/g (72 h) Intestine” value ([3]; Intestine, 72 h) was 0.15 ± 0.06 % ID/g, the “% ID/g (1 h) Kidney” value ([3]; Kidney, 1 h) was 3.34 ± 1.53 % ID/g and the “% ID/g (4 h) Kidney” value ([3]; Kidney, 4 h) was 2.6 ± 0.93 % ID/g. The “% ID/g (24 h) Kidney” value ([3]; Kidney, 24 h) was 1.36 ± 0.42 % ID/g, the “% ID/g (72 h) Kidney” value ([3]; Kidney, 72 h) was 0.46 ± 0.08 % ID/g and the “% ID/g (1 h) Liver” value ([3]; Liver, 1 h) was 2.01 ± 1.1 % ID/g. The “% ID/g (4 h) Liver” value ([3]; Liver, 4 h) was 2.51 ± 0.12 % ID/g, the “% ID/g (24 h) Liver” value ([3]; Liver, 24 h) was 1.53 ± 0.93 % ID/g and the “% ID/g (72 h) Liver” value ([3]; Liver, 72 h) was 0.99 ± 0.37 % ID/g. For the same molecule, the “% ID/g (1 h) Lung” value ([3]; Lung, 1 h) was 3.67 ± 2.25 % ID/g, the “% ID/g (4 h) Lung” value ([3]; Lung, 4 h) was 1.92 ± 0.99 % ID/g and the “% ID/g (24 h) Lung” value ([3]; Lung, 24 h) was 0.69 ± 0.14 % ID/g. The “% ID/g (72 h) Lung” value ([3]; Lung, 72 h) was 0.23 ± 0.06 % ID/g, the “% ID/g (1 h) Muscle” value ([3]; Muscle, 1 h) was 0.93 ± 0.21 % ID/g and the “% ID/g (4 h) Muscle” value ([3]; Muscle, 4 h) was 0.31 ± 0.1 % ID/g. For the same molecule, the “% ID/g (24 h) Muscle” value ([3]; Muscle, 24 h) was 0.1 ± 0.05 % ID/g, the “% ID/g (72 h) Muscle” value ([3]; Muscle, 72 h) was 0.06 ± 0.03 % ID/g and the “% ID/g (1 h) Pancreas” value ([3]; Pancreas, 1 h) was 0.8 ± 0.47 % ID/g. For the same molecule, the “% ID/g (4 h) Pancreas” value ([3]; Pancreas, 4 h) was 0.27 ± 0.06 % ID/g, the “% ID/g (24 h) Pancreas” value ([3]; Pancreas, 24 h) was 0.1 ± 0.02 % ID/g and the “% ID/g (72 h) Pancreas” value ([3]; Pancreas, 72 h) was 0.07 ± 0.03 % ID/g. The “% ID/g (1 h) Spleen” value ([3]; Spleen, 1 h) was 1.25 ± 0.78 % ID/g, the “% ID/g (4 h) Spleen” value ([3]; Spleen, 4 h) was 0.49 ± 0.04 % ID/g and the “% ID/g (24 h) Spleen” value ([3]; Spleen, 24 h) was 0.35 ± 0.3 % ID/g. The “% ID/g (72 h) Spleen” value ([3]; Spleen, 72 h) was 0.34 ± 0.1 % ID/g, the “% ID/g (1 h) Stomach” value ([3]; Stomach, 1 h) was 1.35 ± 0.42 % ID/g and the “% ID/g (4 h) Stomach” value ([3]; Stomach, 4 h) was 0.6 ± 0.23 % ID/g. For the same molecule, the “% ID/g (24 h) Stomach” value ([3]; Stomach, 24 h) was 0.15 ± 0.04 % ID/g, the “% ID/g (72 h) Stomach” value ([3]; Stomach, 72 h) was 0.05 ± 0 % ID/g and the “% ID/g (1 h) Tumor” value ([3]; Tumor, 1 h) was 10.34 ± 5.66 % ID/g. For the same molecule, the “% ID/g (4 h) Tumor” value ([3]; Tumor, 4 h) was 16.13 ± 4.47 % ID/g, the “% ID/g (24 h) Tumor” value ([3]; Tumor, 24 h) was 12.6 ± 3.52 % ID/g and the “% ID/g (72 h) Tumor” value ([3]; Tumor, 72 h) was 8.03 ± 5.76 % ID/g. For the same molecule, the dose limiting organ ([4]; human study) was “kidney”.
